Structures are written as SMILES.

The results in this text go back to patent US20070173488A1, “Pyrazolothiazole Protein Kinase Modulators” (SGX Pharmaceuticals, Inc., priority 2005, published 2007).

The test concerns the target T1, AurA (Homo sapiens, UniProt O14965).
T1 construct: made in house; host or cells: Sf9 insect cells
T1 sequence (O14965 1-403): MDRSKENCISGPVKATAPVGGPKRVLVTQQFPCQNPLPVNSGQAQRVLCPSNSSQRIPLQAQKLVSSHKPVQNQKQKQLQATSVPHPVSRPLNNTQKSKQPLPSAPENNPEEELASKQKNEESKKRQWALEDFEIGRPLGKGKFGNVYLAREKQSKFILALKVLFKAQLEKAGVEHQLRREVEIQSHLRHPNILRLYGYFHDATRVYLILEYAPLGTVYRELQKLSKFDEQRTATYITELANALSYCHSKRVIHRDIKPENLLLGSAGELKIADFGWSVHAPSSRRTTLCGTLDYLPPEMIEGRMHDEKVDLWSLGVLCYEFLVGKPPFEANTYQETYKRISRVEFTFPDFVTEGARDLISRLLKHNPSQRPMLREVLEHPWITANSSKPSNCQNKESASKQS
The test can be described thus: AurA Luminescence-based Enzyme Assay (Kinase-Glo). The class given is biochemical. The text has this:
Homogeneous luminescence-based inhibitor screening assays were developed for c-Abl, MET, AurA, and PDK1 kinases (among others). Each of these assays made use of an ATP depletion assay (Kinase-Glo™, Promega Corporation, Madison, Wis.) to quantitate kinase activity. The Kinase-Glo™ format uses a thermostable luciferase to generate luminescent signal from ATP remaining in solution following the kinase reaction. The luminescent signal is inversely correlated with the amount of kinase activity.
Dose response was analyzed using the equation: y=min+{(max−min)/(1 +10^[compound]-logIC50)}, where y is the observed initial slope, max=the slope in the absence of inhibitor, min=the slope at infinite inhibitor, and the IC50 is the [compound] that corresponds to ½ the total observed amplitude (Amplitude=max−min).
The Sf9 insect cell pellets (˜18 g) produced from 6 L of cultured cells expressing human Aurora-2 were resuspended in 50 mM Na Phosphate pH 8.0, 500 mM NaCl, 10% glycerol, 0.2% n-octyl-β-D-glucopyranoside (BOG) and 3 mM β-Mercaptoethanol (BME). One tablet of Roche Complete, EDTA-free protease inhibitor cocktail (Cat# 1873580) and 85 units Benzonase (Novagen Cat#70746-3)) were added per 1 L of original culture. Pellets were resuspended in approximately 50 ml per 1 L of original culture and were then sonicated on ice with two 30-45 sec bursts (100% duty cycle). Debris was removed by centrifugation and the supernatant was passed through a 0.8 μm syringe filter before being loaded onto a 5 ml Ni^2+ HiTrap column (Pharmacia). The column was washed with 6 column volumes of 50 mM Na Phosphate pH 8.0, 500 mM NaCl, 10% glycerol, 3 mM BME. The protein was eluted using a linear gradient of the same buffer containing 500 mM Imidazole. The eluant (24 ml) was cleaved overnight at 4° C. in a buffer containing 50 mM Na Phosphate pH 8.0, 500 mM NaCl, 10% glycerol, 3 mM BME and 10,000 units of TEV (Invitrogen Cat#10127-017). The protein was passed over a second nickel affinity column as described above; the flow-through was collected. The cleaved protein fractions were combined and concentrated using spin concentrators. Further purification was done by gel filtration chromatography on a S75 sizing column in 50 mM Na Phosphate (pH 8.0), 250mM NaCl, 1 mM EDTA, 0.1 mM AMP-PNP or ATP buffer, and 5 mM DTT. The cleanest fractions were combined and concentrated to approximately 8-11 mg/ml, and were either flash frozen in liquid nitrogen in 120 μl aliquots and stored at −80° C., or stored at 4° C.
AurA Luminescence-based Enzyme Assay
Materials: Kemptide peptide substrate=LRRASLG (Biopeptide, San Diego, Calif.), ATP (Sigma Cat#A-3377, FW=551), HEPES buffer, pH 7.5, 10% Brij 35 (Calbiochem Cat# 203728), MgCl2, Staurosporine (Streptomyces sp. Sigma Cat#85660-1MG), white Costar 384-well flat -bottom plate (VWR Cat#29444-088), Autophosphorylated AurA kinase (see below), Kinase-Glo™ (Promega Cat#V6712).
Stock Solutions: 10 mM Kemptide peptide (7.72 mg/ml in water), stored at −20° C.; 100 mM HEPES buffer +0.015% Brij 35, pH 7.5 (5 ml 1M HEPES stock +75 μL 10% Brij 35+45 ml miliQH2O); 10 mM ATP (5.51 mg/ml in dH2O) stored at −20° C. (diluted 50 μl into total of 10 ml miliQH2O daily=50 μM ATP working stock); 100 mM MgCl2; 200 μM Staurosporine, 2× Kinase-Glo™ reagent (made fresh or stored at −20° C.).
AurA Autophosphorylation Reaction: ATP and MgCl2 were added to 1-5 mg/ml AurA at final concentrations of 10 mM and 100 mM, respectively. The autophosphorylation reaction was incubated at 21° C. for 2-3 h. The reaction was stopped by the addition of EDTA to a final concentration of 50 mM, and samples were flash frozen with liquid N2 and stored at −80° C.
Standard Assay Setup for 384-well format (20 μl kinase reaction, 40 μL detection reaction): 10 mM MgCl2; 0.2mM Kemptide peptide; 1 μl test compound (in DMSO); 0.3 μg/ml Autophosphorylated AurA kinase; 10 μM ATP; 100 mM HEPES+0.015% Brij buffer. Positive controls contained DMSO with no test compound. […]
A general note: Kinase-Glo reads ATP consumption through a luciferase reaction.
Take `O=C(Nc1cc[nH]n1)Nc1nc2[nH]nc(-n3cncc3-c3ccccc3Cl)c2s1` [1-{3-[5-(2-Chloro-phenyl)-imidazol-1-yl]-1H-pyrazolo[3,4-d]thiazol-5-yl}-3-(1H-pyrazol-3-yl)-urea]: the IC50 lay within 1 to 10 µM.

The molecule `O=C(Nc1nc2[nH]nc(-n3cncc3-c3ccc4ccccc4c3)c2s1)C1CC1` [Cyclopropanecarboxylic acid [3-(5-naphthalen-2-yl-imidazol-1-yl)-1H-pyrazolo[3,4-d]thiazol-5-yl]-amide] registered an IC50 of 1 to 10 µM.

In turn, `O=C(Nc1nc2[nH]nc(-n3cncc3-c3ccccc3)c2s1)C1CC1` [Cyclopropanecarboxylic acid [3-(5-phenyl-imidazol-1-yl)-1H-pyrazolo[3,4-d]thiazol-5-yl]-amide] displayed an IC50 of 1 to 10 µM.

`O=C(Nc1nc2[nH]nc(-n3cncc3-c3ccccn3)c2s1)C1CC1` [Cyclopropanecarboxylic acid [3-(5-pyridin-2-yl-imidazol-1-yl)-1H-pyrazolo[3,4-d]thiazol-5-yl]-amide] had a half-maximal inhibitory concentration (IC50) above 10 µM.

`O=C(Nc1nc2[nH]nc(-n3cncc3-c3cc(Cl)cc(Cl)c3Cl)c2s1)C1CC1` [Cyclopropanecarboxylic acid {3-[5-(2,3,5-trichloro-phenyl)-imidazol-1-yl]-1H-pyrazolo[3,4-d]thiazol-5-yl}-amide] had an IC50 of 0.1 to 1 µM.

`O=C(Nc1nc2[nH]nc(-n3cncc3-c3c(Cl)ccc(Cl)c3Cl)c2s1)C1CC1` [Cyclopropanecarboxylic acid {3-[5-(2,3,6-trichloro-phenyl)-imidazol-1-yl]-1H-pyrazolo[3,4-d]thiazol-5-yl}-amide]: the IC50 is below 0.1 µM.

`O=C(Nc1nc2[nH]nc(-n3cncc3-c3cccc(F)c3F)c2s1)C1CC1` [Cyclopropanecarboxylic acid {3-[5-(2,3-difluoro-phenyl)-imidazol-1-yl]-1H-pyrazolo[3,4-d]thiazol-5-yl}-amide] returned an IC50 of 1 to 10 µM.

As to `O=C(Nc1nc2[nH]nc(-n3cncc3-c3c(Cl)cccc3Cl)c2s1)C1CC1` [Cyclopropanecarboxylic acid {3-[5-(2,6-dichloro-phenyl)-imidazol-1-yl]-1H-pyrazolo[3,4-d]thiazol-5-yl}-amide], the IC50 was below 0.1 µM.

Molecule `COc1ccc2nc(Cl)c(-c3cncn3-c3n[nH]c4nc(NC(=O)C5CC5)sc34)cc2c1` [Cyclopropanecarboxylic acid {3-[5-(2-chloro-6-methoxy-quinolin-3-yl)-imidazol-1-yl]-1H-pyrazolo[3,4-d]thiazol-5-yl}-amide] yielded an IC50 above 10 µM.

Molecule `O=C(Nc1nc2[nH]nc(-n3cncc3-c3ccccc3Cl)c2s1)C1CC1` [Cyclopropanecarboxylic acid {3-[5-(2-chloro-phenyl)-imidazol-1-yl]-1H-pyrazolo[3,4-d]thiazol-5-yl}-amide] showed an IC50 below 0.1 µM.

In the case of `NC(=O)COc1ccc(-c2cncn2-c2n[nH]c3nc(NC(=O)C4CC4)sc23)c(Cl)c1` [Cyclopropanecarboxylic acid {3-[5-(4-carbamoylmethoxy-2-chloro-phenyl)-imidazol-1-yl]-1H-pyrazolo[3,4-d]thiazol-5-yl}-amide], the IC50 was 0.1 to 1 µM.

The molecule `CS(=O)(=O)c1ccc(F)cc1-c1cncn1-c1n[nH]c2nc(NC(=O)C3CC3)sc12` [Cyclopropanecarboxylic acid {3-[5-(5-fluoro-2-methanesulfonyl-phenyl)-imidazol-1-yl]-1H-pyrazolo[3,4-d]thiazol-5-yl}-amide] gave an IC50 of 0.1 to 1 µM.

As usually defined, the IC50 is the midpoint of a concentration-inhibition curve.
